Measurements published in the kinase profiling compilation of Christmann-Franck et al. (2016).

Columns and labels:
Experiment in all cases: radiometric filter-binding kinase assay, Kinase HotSpot
Conditions in all cases: compound 0.5 µM; ATP 10 µM
[1] = target: AKT1 (human) (UniProt P31749)
[2] = target: CAMK1D (human) (UniProt Q8IU85)
[3] = target: CAMK2A (human) (UniProt Q9UQM7)
[4] = target: CAMKK1 (human) (UniProt Q8N5S9)
[5] = target: CAMKK2 (human) (UniProt Q96RR4)
[6] = target: CDK2 CCNE1 (human) (UniProt P24941+P24864)
[7] = target: CDK5 CDK5R1 p35 (human) (UniProt Q00535+Q15078)
[8] = target: CDK7 CCNH MNAT1 (human) (UniProt P50613+P51948+P51946)
[9] = target: CSNK1A1 (human) (UniProt P48729)
[10] = target: CSNK1G3 (human) (UniProt Q9Y6M4)
[11] = target: DAPK3 (human) (UniProt O43293)
[12] = target: DYRK1A (human) (UniProt Q13627)
[13] = target: DYRK2 (human) (UniProt Q92630)
[14] = target: EPHB4 (human) (UniProt P54760)
[15] = target: FER (human) (UniProt P16591)
[16] = target: FGFR2 (human) (UniProt P21802)
[17] = target: FGFR3 (human) (UniProt P22607)
[18] = target: FLT1 (human) (UniProt P17948)
[19] = target: FYN (human) (UniProt P06241)
[20] = target: JAK2 JH1 JH2 (human) (UniProt O60674)
[21] = target: MAPK1 (human) (UniProt P28482)
[22] = target: MAPK10 (human) (UniProt P53779)
[23] = target: MAPK14 (human) (UniProt Q16539)
[24] = target: MAPK8 (human) (UniProt P45983)
[25] = target: MKNK2 (human) (UniProt Q9HBH9)
[26] = target: MST1R (human) (UniProt Q04912)
[27] = target: NEK4 (human) (UniProt P51957)
[28] = target: NTRK2 (human) (UniProt Q16620)
[29] = target: PAK1 (human) (UniProt Q13153)
[30] = target: PIM3 (human) (UniProt Q86V86)
[31] = target: PKN1 (human) (UniProt Q16512)
[32] = target: PRKCA (human) (UniProt P17252)
[33] = target: PRKCB2 (human) (UniProt P05771)
[34] = target: PRKCG (human) (UniProt P05129)
[35] = tested on: PRKCQ (human), Q04759 [P330L]
[36] = target: RAF1 (human) (UniProt P04049)
[37] = target: RPS6KA2 KD1 KD2 (human) (UniProt Q15349)
[38] = target: STK33 (human) (UniProt Q9BYT3)
[39] = target: TTK (human) (UniProt P33981)
[40] = target: TYK2 JH1 catalytic (human) (UniProt P29597)
TYK2 JH1 catalytic (human), sequence (P29597 whole entry, looked up): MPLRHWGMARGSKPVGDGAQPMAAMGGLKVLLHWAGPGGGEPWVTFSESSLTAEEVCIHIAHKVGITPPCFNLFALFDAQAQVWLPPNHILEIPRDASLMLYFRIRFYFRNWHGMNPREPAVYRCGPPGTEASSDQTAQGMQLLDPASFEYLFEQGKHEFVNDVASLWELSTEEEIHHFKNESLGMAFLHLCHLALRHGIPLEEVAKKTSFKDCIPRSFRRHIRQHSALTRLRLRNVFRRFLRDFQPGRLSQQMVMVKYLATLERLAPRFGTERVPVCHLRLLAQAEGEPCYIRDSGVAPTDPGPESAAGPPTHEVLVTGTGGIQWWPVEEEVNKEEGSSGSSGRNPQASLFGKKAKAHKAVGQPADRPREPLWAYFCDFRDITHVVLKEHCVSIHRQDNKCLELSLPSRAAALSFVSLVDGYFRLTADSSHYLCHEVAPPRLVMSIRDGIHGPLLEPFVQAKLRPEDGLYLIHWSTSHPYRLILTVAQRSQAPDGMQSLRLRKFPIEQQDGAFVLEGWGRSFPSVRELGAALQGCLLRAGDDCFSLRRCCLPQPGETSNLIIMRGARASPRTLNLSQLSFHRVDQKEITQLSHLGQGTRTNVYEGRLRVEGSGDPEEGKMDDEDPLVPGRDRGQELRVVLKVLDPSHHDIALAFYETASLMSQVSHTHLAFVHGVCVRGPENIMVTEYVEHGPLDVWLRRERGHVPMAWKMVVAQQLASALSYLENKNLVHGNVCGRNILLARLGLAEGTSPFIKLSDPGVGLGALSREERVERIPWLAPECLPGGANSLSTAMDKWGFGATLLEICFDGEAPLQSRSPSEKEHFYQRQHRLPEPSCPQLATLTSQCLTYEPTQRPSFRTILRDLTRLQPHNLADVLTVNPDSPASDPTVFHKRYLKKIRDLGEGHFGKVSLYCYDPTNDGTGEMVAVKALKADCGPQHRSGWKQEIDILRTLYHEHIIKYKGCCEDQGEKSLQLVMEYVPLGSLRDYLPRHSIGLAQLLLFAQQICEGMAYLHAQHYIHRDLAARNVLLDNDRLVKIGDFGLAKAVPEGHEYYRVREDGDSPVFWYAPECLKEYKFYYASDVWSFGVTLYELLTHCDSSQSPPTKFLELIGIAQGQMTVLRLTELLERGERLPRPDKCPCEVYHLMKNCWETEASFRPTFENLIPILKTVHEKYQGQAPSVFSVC

PAK1 (human), sequence (Q13153 whole entry, looked up): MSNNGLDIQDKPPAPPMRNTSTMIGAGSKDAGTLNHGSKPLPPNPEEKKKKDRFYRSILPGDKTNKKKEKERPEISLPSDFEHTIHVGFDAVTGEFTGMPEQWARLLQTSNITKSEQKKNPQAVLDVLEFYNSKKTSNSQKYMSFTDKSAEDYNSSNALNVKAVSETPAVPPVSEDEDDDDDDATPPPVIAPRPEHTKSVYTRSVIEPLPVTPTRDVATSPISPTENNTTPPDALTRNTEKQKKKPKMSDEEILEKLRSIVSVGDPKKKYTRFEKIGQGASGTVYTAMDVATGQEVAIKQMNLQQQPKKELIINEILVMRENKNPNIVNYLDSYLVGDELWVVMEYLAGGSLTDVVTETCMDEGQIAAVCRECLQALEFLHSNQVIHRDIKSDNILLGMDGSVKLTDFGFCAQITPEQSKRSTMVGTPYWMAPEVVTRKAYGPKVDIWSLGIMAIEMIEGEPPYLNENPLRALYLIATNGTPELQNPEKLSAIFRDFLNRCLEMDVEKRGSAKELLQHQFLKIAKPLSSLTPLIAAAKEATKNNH
NTRK2 (human), sequence (Q16620 whole entry, looked up): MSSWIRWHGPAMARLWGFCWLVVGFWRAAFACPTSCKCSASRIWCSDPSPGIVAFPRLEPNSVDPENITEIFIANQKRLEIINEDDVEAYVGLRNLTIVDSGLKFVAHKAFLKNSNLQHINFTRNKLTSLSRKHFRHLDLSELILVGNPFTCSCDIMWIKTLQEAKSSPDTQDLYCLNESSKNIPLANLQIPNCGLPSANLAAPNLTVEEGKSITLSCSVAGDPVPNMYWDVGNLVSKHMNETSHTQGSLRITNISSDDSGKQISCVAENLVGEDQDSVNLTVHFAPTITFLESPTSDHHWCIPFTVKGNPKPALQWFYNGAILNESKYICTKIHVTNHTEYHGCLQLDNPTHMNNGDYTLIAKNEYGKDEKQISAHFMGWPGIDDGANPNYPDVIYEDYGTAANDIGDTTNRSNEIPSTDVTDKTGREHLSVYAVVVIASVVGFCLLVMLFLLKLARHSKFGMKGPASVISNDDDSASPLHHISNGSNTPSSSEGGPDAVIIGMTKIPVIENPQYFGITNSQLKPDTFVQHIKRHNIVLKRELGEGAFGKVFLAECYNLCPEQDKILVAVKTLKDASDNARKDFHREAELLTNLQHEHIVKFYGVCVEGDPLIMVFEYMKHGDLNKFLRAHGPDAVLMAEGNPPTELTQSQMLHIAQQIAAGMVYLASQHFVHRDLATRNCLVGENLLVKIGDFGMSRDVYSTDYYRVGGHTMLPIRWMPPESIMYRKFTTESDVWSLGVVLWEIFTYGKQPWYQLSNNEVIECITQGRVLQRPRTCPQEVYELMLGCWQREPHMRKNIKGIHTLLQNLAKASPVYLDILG
MAPK8 (human), sequence (P45983 whole entry, looked up): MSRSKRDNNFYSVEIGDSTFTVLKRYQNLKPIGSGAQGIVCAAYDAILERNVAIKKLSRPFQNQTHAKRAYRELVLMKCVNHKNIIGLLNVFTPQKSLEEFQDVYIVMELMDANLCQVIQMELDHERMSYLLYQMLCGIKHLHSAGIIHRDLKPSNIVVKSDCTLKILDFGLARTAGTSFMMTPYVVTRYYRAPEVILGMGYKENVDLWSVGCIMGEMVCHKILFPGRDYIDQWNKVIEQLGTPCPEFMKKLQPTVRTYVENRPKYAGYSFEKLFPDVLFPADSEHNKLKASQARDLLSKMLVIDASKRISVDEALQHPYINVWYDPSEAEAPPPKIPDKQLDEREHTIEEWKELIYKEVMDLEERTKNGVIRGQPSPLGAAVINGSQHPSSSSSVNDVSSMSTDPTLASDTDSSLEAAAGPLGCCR
FYN (human), sequence (P06241 whole entry, looked up): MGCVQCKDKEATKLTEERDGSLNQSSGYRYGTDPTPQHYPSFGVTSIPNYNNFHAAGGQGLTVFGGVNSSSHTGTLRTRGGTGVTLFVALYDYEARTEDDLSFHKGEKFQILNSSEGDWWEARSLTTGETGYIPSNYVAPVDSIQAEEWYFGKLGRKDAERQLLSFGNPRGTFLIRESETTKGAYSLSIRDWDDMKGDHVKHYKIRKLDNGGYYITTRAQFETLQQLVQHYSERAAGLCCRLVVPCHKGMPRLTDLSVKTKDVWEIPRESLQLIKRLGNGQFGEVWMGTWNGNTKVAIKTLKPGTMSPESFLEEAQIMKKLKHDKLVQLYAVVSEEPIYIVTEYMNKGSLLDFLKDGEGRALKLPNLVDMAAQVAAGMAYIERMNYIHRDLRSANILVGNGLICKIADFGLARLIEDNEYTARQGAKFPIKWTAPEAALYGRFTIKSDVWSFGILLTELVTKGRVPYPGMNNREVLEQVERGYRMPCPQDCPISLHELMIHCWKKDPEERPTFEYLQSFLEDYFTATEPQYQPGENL
FER (human), sequence (P16591 whole entry, looked up): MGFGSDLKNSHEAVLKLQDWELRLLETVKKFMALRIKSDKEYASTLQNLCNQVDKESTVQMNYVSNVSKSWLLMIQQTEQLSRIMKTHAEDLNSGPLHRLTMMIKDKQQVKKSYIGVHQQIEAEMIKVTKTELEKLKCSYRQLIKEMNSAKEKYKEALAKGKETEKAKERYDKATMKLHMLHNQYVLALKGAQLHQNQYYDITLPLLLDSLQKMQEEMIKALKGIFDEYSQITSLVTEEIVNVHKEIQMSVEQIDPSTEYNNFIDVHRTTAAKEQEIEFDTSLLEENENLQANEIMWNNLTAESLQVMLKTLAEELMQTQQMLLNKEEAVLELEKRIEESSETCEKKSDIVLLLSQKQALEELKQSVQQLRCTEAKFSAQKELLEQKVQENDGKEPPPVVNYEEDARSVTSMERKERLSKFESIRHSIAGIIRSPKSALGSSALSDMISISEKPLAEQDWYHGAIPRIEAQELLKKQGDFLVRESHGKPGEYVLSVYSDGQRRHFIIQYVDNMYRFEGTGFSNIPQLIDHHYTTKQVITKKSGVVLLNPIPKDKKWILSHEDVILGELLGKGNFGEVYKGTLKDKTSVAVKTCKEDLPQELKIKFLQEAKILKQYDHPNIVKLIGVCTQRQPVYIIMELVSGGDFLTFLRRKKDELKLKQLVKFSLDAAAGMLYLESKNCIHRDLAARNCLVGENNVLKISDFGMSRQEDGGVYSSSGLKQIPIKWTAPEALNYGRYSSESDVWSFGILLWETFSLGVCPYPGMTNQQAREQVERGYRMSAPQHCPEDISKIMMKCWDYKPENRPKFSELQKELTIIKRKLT
CAMK2A (human), sequence (Q9UQM7 whole entry, looked up): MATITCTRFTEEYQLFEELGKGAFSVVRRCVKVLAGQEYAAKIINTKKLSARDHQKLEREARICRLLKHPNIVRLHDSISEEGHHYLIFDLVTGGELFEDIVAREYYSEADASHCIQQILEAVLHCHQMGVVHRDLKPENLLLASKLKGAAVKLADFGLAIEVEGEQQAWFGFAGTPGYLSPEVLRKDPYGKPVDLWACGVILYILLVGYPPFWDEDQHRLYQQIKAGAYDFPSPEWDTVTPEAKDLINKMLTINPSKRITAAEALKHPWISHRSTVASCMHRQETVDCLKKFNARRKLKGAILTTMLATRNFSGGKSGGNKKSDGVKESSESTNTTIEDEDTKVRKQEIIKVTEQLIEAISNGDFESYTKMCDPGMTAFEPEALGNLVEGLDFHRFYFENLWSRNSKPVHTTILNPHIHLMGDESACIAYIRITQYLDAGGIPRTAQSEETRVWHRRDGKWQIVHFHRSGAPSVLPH

Row | Compound | residual activity [1] | residual activity [2] | residual activity [3] | residual activity [4] | residual activity [5] | residual activity [6] | residual activity [7] | residual activity [8] | residual activity [9] | residual activity [10] | residual activity [11] | residual activity [12] | residual activity [13] | residual activity [14] | residual activity [15] | residual activity [16] | residual activity [17] | residual activity [18] | residual activity [19] | residual activity [20] | further results
1 | CN(C)S(=O)(=O)c1ccc2c(c1)/C(=C/c1cc3c([nH]1)CCCC3)C(=O)N2 | 107% | 99.8% | 61.4% | 65.4% | 27.3% | 85.5% | 76.9% | 76.4% | 91.7% | 101% | 94.4% | 81.1% | 103% | 85.8% | 51.8% | 49.3% | 57.1% | 84.9% | 33.1% | 46.1% | residual activity [21]: 101%; residual activity [22]: 105%; residual activity [23]: 98.8%; residual activity [24]: 91.1%; residual activity [25]: 84.1%; residual activity [26]: 101%; residual activity [27]: 99.9%; residual activity [28]: 15.6%; residual activity [29]: 96.1%; residual activity [30]: 117%; residual activity [31]: 91.2%; residual activity [32]: 94.9%; residual activity [33]: 92%; residual activity [34]: 86.8%; residual activity [35]: 112%; residual activity [36]: 97.7%; residual activity [37]: 52.8%; residual activity [38]: 77.2%; residual activity [39]: 89.7%; residual activity [40]: 11.4%
2 | O=C(c1cc2cc(O)ccc2[nH]1)c1cc2cc(O)ccc2[nH]1 | 98.2% | 91.5% | 74.5% | 63.3% | 84.2% | 65% | 57.3% | 93.5% | 96.3% | 77.2% | 104% | 103% | 89% | 89.3% | 86.6% | 98.5% | 92.1% | 81.3% | 28.8% | 95.6% | residual activity [21]: 113%; residual activity [22]: 91.6%; residual activity [23]: 103%; residual activity [24]: 112%; residual activity [25]: 46.8%; residual activity [26]: 90.4%; residual activity [27]: 87.6%; residual activity [28]: 37%; residual activity [29]: 94.6%; residual activity [30]: 98.9%; residual activity [31]: 76.3%; residual activity [32]: 84.1%; residual activity [33]: 98.9%; residual activity [34]: 85.1%; residual activity [35]: 92.1%; residual activity [36]: 104%; residual activity [37]: 22.2%; residual activity [38]: 77.5%; residual activity [39]: 92.9%; residual activity [40]: 66.7%
